Data as given in US8658699B2, “Chemical permeation enhancers enhance nerve blockade by toxins” (priority 2008, dated 2014).
Where “and” joins values, the source holds several entries; their conditions need not be identical. Identical values can stand only once. Like-named read-outs stand apart in the source and are kept apart here.

Experiments:
[1] = tested on: sciatic nerve; conditions: 0.1-0.3 mL of 0.25%-0.5% (8.7-17 mM) bupivacaine (Kohane 1998, 1999); cited from earlier work
[2] = tested on: sciatic nerve; conditions: for % Animals with Effective Block / Duration of Sensory Block: Bupivacaine 1.4 mM with the EC50eff of each CPE, listed as '—' = bupivacaine alone; for Duration of Sensory Block: median; for TTX block duration compared to TTX alone: 30 μM TTX with CPE at the concentration giving maximum percentage of block, p<0.001; for Maximum Block Duration (MBD, minutes): CPE co-injected with 30 μM TTX, 0.3 mL at sciatic nerve, median (25th-75th percentiles); for ECMBD: CPE concentration that caused the maximum prolongation of block from 30 μM TTX; for CPE Concentration: lowest CPE concentration needed to achieve the highest percentage of animals with block, with 30 μM TTX; for EC50: read-out: EC50eff
[3] = tested on: sciatic nerves and surrounding muscle
[4] = tested on: C2C12 myotubes; conditions: for % Survival: C2C12 myotubes, 2-hour exposure to each CPE at its EC50eff, head 'TTX 30 μm with:', mean ± SD, from FIG. 2
[5] = tested on: sciatic nerve; assay: animal or person; conditions: Rattus norvegicus, read-out: EC50eff (mM)
[6] = tested on: sciatic nerve; assay type: in vivo, Sprague-Dawley rats
[7] = EC50eff of each enhancer without TTX, four days after injection, 4 animals per group
[8] = 30 μM TTX with CPE, effective if latency >7 seconds at any point, listed as '—' = TTX alone

| Compound | % Animals with Effective Block [2] [%] | Duration of Sensory Block [2] [min] | histology: muscle and nerve injury [3, 7] | % Survival [4] [%] | TTX block duration compared to TTX alone [2] | Highest % Animals with Effective Block [2, 8] [%] | Maximum Block Duration (MBD, minutes) ([2]; listed as '—' = TTX alone) | ECMBD [2] [mM] | CPE Concentration [2] [mM] | EC100 min ([2]; rat, in vivo) [mM] | EC50 [5] [mM] | other results |
| --- | --- | --- | --- | --- | --- | --- | --- | --- | --- | --- | --- | --- |
| CCCCN1CCCCC1C(=O)Nc1c(C)cccc1C (stereo not drawn) [Bupivacaine, bupivacaine, reference compound] | 42 | 0 | – | – | – | – | – | – | – | – | – | successful blocks [1]: > 99% |
| CCCCCCCCCCCC[N+](C)(C)C.[Br-] [DDAB, Dodecyl-trimethyl-ammonium Bromide] | 0 | 0 | moderate to severe infiltration of macrophages and lymphocytes, atrophy and degeneration of muscle fibers, and fibrosis of the tissue | 5 ± 0.2 | significantly improved TTX block duration | 100 | 606 (452-788) minutes | 8 | 6 | 1 | 6 | histology: tissue damage ([3]; 3% (97.3 mM) DDAB, two animals): deep and severe tissue damage, including ischemic necrosis, accompanied by severe and extensive inflammation; histology: muscle and nerve injury ([3]; EC50eff of the enhancers together with 30 μm TTX): severe lymphocytic inflammatory infiltration of muscle with degenerative changes, regenerative changes, and fibrosis; resolution of nerve block ([2]; 30 μM TTX in 32 mM DDAB): none of those rats' nerve blocks resolved; nerve blockade by CPE alone ([2]; 32 mM DDAB alone, without TTX, the exception to 'CPE alone did not cause nerve blockade'): with one exception |
| CCCCCCCC[N+](C)(C)C.[Br-] [OTAB, Octyl-trimethyl-ammonium Bromide] | 0 | 0 | no significant muscle or nerve injury | 53 ± 2 | significantly improved TTX block duration | 100 | 353 (327-361) minutes | 119 | 40 | 31 | 30 | – |
| Cc1cccc(C)c1NC(=O)C[N+](C)(C)C [QX-222, 2-((2,6-dimethylphenyl)amino)-N,N,N-trimethyl-2-oxoethanaminium] | – | – | – | – | – | – | – | – | – | – | – | thermal nociceptive and motor blockade of the combination with TTX ([6]; 25 and 70 mM QX-314 or 70 and 100 mM QX-222 with 30, 40 or 50 μM TTX, FIGS. 5A and B): increased blockade significantly more than the mere cumulative value of the anesthetics alone |
| CC[N+](CC)(CC)CC(=O)Nc1c(C)cccc1C [QX-314, N-(2,6)dimethylphenylcarbamoylmethyl triethylammonium bromide] | – | – | – | – | – | – | – | – | – | – | – | thermal nociceptive and motor blockade of the combination with TTX ([6]; rat, in vivo): increased blockade significantly more than the mere cumulative value of the anesthetics alone |
| CCCCCCCCCCCCOS(=O)(=O)[O-].[Na+] [SLS, Sodium Dodecyl Sulfate] | 50 | 22 | no significant muscle or nerve injury | 17 ± 11 | significantly improved TTX block duration | 88 | – | 35 | 17 | – | 4 | EC100 min ([2]; interpolated concentration of CPE that increased block duration of 30 μM TTX to 100 min): 3 mM |
| CCCCCCCCOS(=O)(=O)[O-].[Na+] [SOS, Sodium Octyl Sulfate] | 25 | 0 | no significant muscle or nerve injury | 5 ± 3 | significantly improved TTX block duration | 100 | 521 (361-669) minutes | 86 | 32 | 22 | 32 | – |
| NC1=N[C@H](O)[C@H]2[C@H]3O[C@]4(O)O[C@@H]([C@@H](O)[C@@]2(N1)[C@@H]4O)[C@]3(O)CO [TTX, tetrodotoxin, reference compound] | – | – | – | – | – | – | – | – | – | – | – | % of animals with sensory blockade (effective nerve block) ([2]; rat, in vivo): 29% and 29.2%; Highest % Animals with Effective Block ([2]; rat, in vivo): 29% |
| polysorbate 20 [TW 20] | 25 | 0 | no significant muscle or nerve injury | 94 ± 3 | significantly improved TTX block duration | 100 | 163 (129-206) minutes | 49 | 4 | 4 | – | histology: muscle and nerve injury ([3]; Tween 20 at 24.4 and 81.4 mM): progressively worsening (mild to moderate) muscle atrophy and inflammation; C2C12 viability after longer exposure ([4]; CPE at EC50eff, 8-hour exposure / increasing duration of exposure (data not shown)): remained at untreated-control levels; EC50 ([2]; CPE concentration causing half-maximal increase in duration of block (half-MBD) of 30 μM TTX): 3 mM |
| polysorbate 80 [TW 80] | 0 | 0 | no significant muscle or nerve injury | 80 ± 8 | significantly improved TTX block duration | 100 | 120 (111-143) minutes | 81 | 81 | 40 | – | EC50 ([2]; rat, in vivo): 34 mM |
